From US20140213538A1, “LYSOPHOSPHATIDIC ACID RECEPTOR ANTAGONISTS” (InterMune, Inc., priority 2013, published 2014)

Tests used:
Assay type in all cases: cell-based
LPA/S1P GPCR of interest = biological target: T1, LPA/S1P GPCR of interest (Homo sapiens, UniProt Q92633); assay: Beta-Arrestin based assay (PathHunter)
T1 construct: host or cells: CHO
Outline: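 EA Parental CHO cells (DiscoverX) were transfected with FuGENE (Roche) using CMV promoter-driven DNA constructs encoding the LPA/S1P GPCR of interest fused to a ProLink tag. Beta-arrestin recruitment in agonist mode was assessed 24-48 hrs later with PathHunter kits. Tests ran in quadruplicate in white 384 well plates, and end point luminescence was fit to a 4 parameter logistic function.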

LPA1 [1] = biological target: T2, LPA1 (Homo sapiens, UniProt Q92633); assay: LPA1 Migration Assay (Oris); set-up: host or cells: primary fibroblasts (lung, dermal), HFL-1, 3T3 and CHO cells expressing LPA1R; settings: read-out: Cell Migration EC50
T2 sequence (Q92633 whole entry): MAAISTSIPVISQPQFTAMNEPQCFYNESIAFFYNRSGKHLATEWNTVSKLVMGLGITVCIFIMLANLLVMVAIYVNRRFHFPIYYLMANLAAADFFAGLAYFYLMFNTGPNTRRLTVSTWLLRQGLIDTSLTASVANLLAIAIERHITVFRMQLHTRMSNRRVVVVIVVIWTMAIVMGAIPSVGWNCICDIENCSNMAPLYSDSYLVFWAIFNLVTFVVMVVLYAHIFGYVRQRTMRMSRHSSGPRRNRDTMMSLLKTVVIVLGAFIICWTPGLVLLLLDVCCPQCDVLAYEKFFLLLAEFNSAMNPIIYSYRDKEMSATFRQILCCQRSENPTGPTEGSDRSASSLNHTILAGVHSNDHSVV
Outline: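 Antagonist inhibition was derived by 4-parameter logistic fitting of migrated-cell counts against compound concentration. Dye-loaded, 12-24 h serum-starved fibroblasts, HFL-1, 3T3 or CHO cells expressing LPA1R moved into an Oris detection zone in response to LPA or serum, then were fixed and counted on a high-content reader.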

LPA1 [2] = biological target: T2, LPA1; assay: Ca Flux LPA1 assay; set-up: the full-length cDNA for human LPA1 is obtained by PCR of the reverse transcription reaction; expressed in transfected cells

T1 sequence (Q92633 whole entry): as above

| SMILES | EC50 (LPA/S1P GPCR of interest) | EC50 (LPA1 [1]) | IC50 (LPA1 [2]) |
| --- | --- | --- | --- |
| Cc1noc(-c2ccc(-c3ccc(Oc4c(C(=O)O)nn(C)c4C)cc3)cc2)c1NC(=O)O[C@H](C)c1ccccc1 [IT484] | < 50 nM | 50 to 500 nM | < 50 nM |
| CCC(C)OC(=O)Nc1c(C)noc1-c1ccc(-c2ccc(Oc3ccccc3C(=O)O)cc2)cc1 (single isomer, unassigned) [IT494] | < 50 nM | 50 to 500 nM | < 50 nM |
| C[C@@H](OC(=O)Nc1c(C#Cc2sc3cc(C4(C(=O)O)CC4)sc3c2C(F)(F)F)cnn1C)c1ccccc1 [IT103] |  | 50 to 500 nM | < 50 nM |
| Cc1nsc(-c2ccc(C3CCC(C4(C(=O)O)CC4)CC3)cc2)c1NC(=O)O[C@H](C)c1ccccc1 (stereo partly drawn) [IT091] |  | > 500 nM | 50 to 500 nM |
| C[C@@H](OC(=O)Nc1c(C(F)(F)F)nnn1-c1ccc(-c2ccc(C3(C(=O)O)CC3)cc2)cc1)c1ccccc1 [IT072] |  | > 500 nM | 50 to 500 nM |
| Cc1noc(C#Cc2nc3sc(C4(C(=O)O)CC4)cc3s2)c1NC(=O)O[C@H](C)c1ccccc1 [IT102] |  | 50 to 500 nM | < 50 nM |
| C[C@@H](OC(=O)Nc1c(C#Cc2cc3sc(C4(C(=O)NS(C)(=O)=O)CC4)cc3s2)cnn1C)c1ccccc1 [IT098] |  |  | < 50 nM |
| CCc1nc(C(=O)O)c(Oc2ccc(-c3ccc(-c4onc(C)c4NC(=O)O[C@H](C)c4ccccc4)cc3)cc2)o1 [IT434] | < 50 nM |  | 50 to 500 nM |
| Cc1c(C#Cc2cnn(C)c2NC(=O)O[C@H](C)c2ccccc2)sc2c(C)c(C3(C(=O)O)CC3)sc12 [IT110] | < 50 nM | 50 to 500 nM |  |
| C[C@@H](OC(=O)Nc1c(-c2cc3sc(-c4ccc(CC(=O)O)cc4N)cc3s2)cnn1C)c1ccccc1 [IT180] | > 500 nM | > 500 nM |  |
| Cc1noc(-c2ccc(-c3ccc(NS(C)(=O)=O)cc3)cc2)c1NC(=O)O[C@H](C)c1ccccc1 [IT195] | 50 to 500 nM | > 500 nM |  |
| C[C@@H](OC(=O)Nc1c(-c2ccc(-c3ccc(OC4(C(=O)O)CC4)cc3)cc2)oc2ccccc12)c1ccccc1 [IT512] | 50 to 500 nM | > 500 nM |  |
| C[C@@H](OC(=O)Nc1cccnc1C#Cc1cc2sc(C3(C(=O)O)CC3)cc2s1)c1ccccc1 [IT115] | 50 to 500 nM | > 500 nM |  |
| C[C@@H](OC(=O)Nc1c(-c2cc3sc(-c4ccc(CC(=O)O)cc4F)cc3s2)nnn1C)c1ccccc1 [IT159] | 50 to 500 nM | > 500 nM |  |
| C[C@@H](OC(=O)Nc1c(-c2ccc(-c3ccc(Oc4cccc(F)c4C(=O)O)cc3)cc2)nnn1C)c1ccccc1 [IT455] | < 50 nM | < 50 nM |  |
| C[C@@H](OC(=O)Nc1c(-c2cc3sc(-c4ccc(C5(C(=O)O)CC5)cc4F)cc3s2)nnn1C)c1ccccc1 [IT246] | < 50 nM | 50 to 500 nM |  |
| CCC(C)OC(=O)Nc1c(C)noc1-c1ccc(-c2ccc(Oc3ccccc3C(=O)O)cc2)cc1 (single isomer, unassigned) [IT493] | 50 to 500 nM | > 500 nM |  |
| C[C@@H](OC(=O)Nc1c(-c2cc3sc(-c4ccc(C5(C(=O)O)CC5)c(F)c4)cc3s2)cnn1C)c1ccccc1 [IT295] | < 50 nM | 50 to 500 nM |  |
| Cc1noc(-c2ccc(-c3ccc(Oc4ncsc4C(=O)O)cc3)cc2)c1NC(=O)O[C@H](C)c1ccccc1 [IT417] | 50 to 500 nM | 50 to 500 nM |  |
| C[C@@H](OC(=O)Nc1c(-c2cc3sc(-c4ccc(CC(=O)O)cc4)cc3s2)nnn1C)c1ccccc1 [IT160] | 50 to 500 nM | 50 to 500 nM |  |
| Cc1noc(C#Cc2ccc(NC3(C(=O)O)CC3)cc2)c1NC(=O)O[C@H](C)c1ccccc1 [IT006] | 50 to 500 nM | 50 to 500 nM |  |
| C[C@@H](OC(=O)Nc1c(-c2ccc(-c3ccc(Oc4cc(F)ccc4C(=O)O)cc3)cc2)cnn1C)c1ccccc1 [IT469] | < 50 nM | 50 to 500 nM |  |
| Cc1noc(-c2ccc(-c3ccc(S(N)(=O)=O)cc3)cc2)c1NC(=O)O[C@H](C)c1ccccc1 [IT129] | 50 to 500 nM | > 500 nM |  |
| C[C@@H](OC(=O)Nc1c(-c2cc3sc(-c4ccc5scc(CC(=O)O)c5c4)cc3s2)nnn1C)c1ccccc1 [IT336] | < 50 nM | 50 to 500 nM |  |
| C[C@@H](OC(=O)Nc1c(-c2cc3sc(-c4ccc(CC(=O)O)c(F)c4)cc3s2)cnn1C)c1ccccc1 [IT164] | < 50 nM | > 500 nM |  |
